{
  "source": "patent US9855265B2",
  "about": "“Methods for treating cancer with TrkA receptor tyrosine kinase antagonists” (VM Oncology LLC, priority 2014, dated 2018)",
  "key": {"[1]": {"system": "PANC-1 subcutaneous human pancreatic cancer xenografts", "assay": "PANC-1 Subcutaneous Human Pancreatic Cancer Xenograft Mouse Model", "description": "Temperature: 22±3° C. Humidity: 50±20%. Light cycle: 12 hours light and 12 hours dark. Cages: Polycarbonate cages of 300 mm×180 mm×150 mm embedded with the soft wood material were used. The bedding was changed twice a week. Diet: Animals had free access to a certified commercial laboratory diet. Concentrations of contaminants in the diet are routinely analyzed by the manufacturers to ensure the contaminants are below their allowable maximum and thus would not affect the tumor growth.\nWater: Animals had free access to sterile drinking water. Cage identification: The identification labels for each cage contained the following information: number of animals, sex, strain, date received, treatment, group number and the starting date of the treatment. Briefly, PANC-1 cell line was originally purchased from the ATCC (CRL-1469) and the PANC-1 primary cell line was derived from the PANC-1 subcutaneously xenograft tumors. The PANC-1 primary cells were maintained in vitro as monolayer culture in DMEM medium supplemented with 10% heat inactivated fetal bovine serum, 100 U/ml penicillin and 100 μg/ml streptomycin and L-glutamine (2 mM) at 37° C. in an atmosphere of 5% CO2 air. The cells growing in exponential phase were harvested and counted for tumor inoculation.\nTumor Cell Inoculation and Randomization. Each animal was inoculated subcutaneously on the right flank with the PANC-1 primary tumor cells (5×10^6/animal) in 0.1 mL of PBS. Tumor development was allowed undisrupted until mean tumor volume reached approximately 85 mm^3. Animals were then randomized into 6 groups, with each group consisting of 8 animals. The test articles were administered to the tumor-bearing animals according to predetermined regimens. […] At the time of routine monitoring, the animals were checked for any effects of tumor growth on normal behavior such as mobility, food and water consumption (by looking only), body weight (BW) gain/loss (BW was measured twice weekly), eye/hair matting and any other abnormal effect. Death and observed clinical signs were recorded on the basis of the numbers of animals within each subset.\nTumor Measurement and the Endpoints: The major endpoint was to evaluate if the tumor growth could be inhibited. Tumor measurement was conducted twice weekly with a caliper and the tumor volume (mm3) is estimated using the formula: TV=a×b^2/2, where a and b are long and short diameters of a tumor, respectively. The tumor sizes were then used for T/C value and TGI (tumor growth inhibition), which are indicators of anti-tumor effectiveness. The T/C value (in percent) is an indication of antitumor effect. T and C are the mean volumes of the treated and control groups, respectively, on a given day. BW change, expressed as %, is calculated using the following formula: BW change (%)=(BW_DayX/BW_Day0)×100, where BW_DayX is BW on a given day, and BW_Day0 was BW on Day 0 (tumor inoculation).\nTumor Sample Collection: Two tumor samples from Group 1, 2 and 3, respectively; six tumor samples from Group 4; five tumor samples from Group 5 and 6, respectively, were snap frozen in liquid nitrogen and kept at −80° C. Total 22 tumor samples were collected.\nStatistical Analyses: A one-way ANOVA was performed to compare tumor volumes among groups. All data were analyzed using the SPSS 17.0 software; p<0.05 was considered statistically significant."}, "[2]": {"system": "carrageenan-induced pain in rats", "assay": "Carrageenan Pain Model", "assay_type": "in vivo, Sprague-Dawley rats", "conditions": "carrageenan rat model, 30 mg/kg, p.o.", "procedure": "Carrageenan Pain Model The carrageenan model is a fast, reliable model used to assess the ability of analgesics to block inflammatory pain. The analgesic effects of test article combinations on pain generation are assayed using the carrageenan-induced pain model in rats. Adult male Sprague-Dawley rats are administered study drugs orally (vehicle, compounds of present disclosure) once daily for 2 days (day −2 and day −1) and 30 minutes prior to the carrageenan injection on day 0 (time=0). For the carrageenan injection, animals are lightly anesthetized and 0.1 ml of 2% carrageenan is injected into the plantar surface of the right hind paw. The positive control indomethacin (30 mg/kg, p.o.) is administered orally immediately before the carrageenan injection. Paw volumes (right and left) are measured using a Plethysmometer before drug administration on day −2 and serve as a baseline measurement. The paw volumes are measured again two hours post carrageenan injection. The degree of mechanical allodynia is measured by a blinded observer using Von Frey filaments applied to the plantar surface of the hind paws in an increasing numerical order. Each filament increases the force applied on the paw. The filaments are applied until animal paw withdrawal is achieved. […] Results are expressed as mean change from baseline across five timepoints post carrageenan injection."}, "[3]": {"system": "CCI rats, mechanical allodynia", "conditions": "single oral dose", "description": "Chronic Constriction Injury (CCI) Model of Neuropathic Pain in Rats. […] Chronic constriction injury of the sciatic nerve was produced by tying four loose ligatures around the left sciatic nerve according to the method of Bennett and Xie. […] Calibrated von Frey filaments were used to determine the lowest mechanical (tactile) threshold required to evoke a brisk paw withdrawal reflex in the rat hindpaws. Rats were allowed to acclimatize in wire mesh cages for 15-20 min prior to von Frey testing. Assessment of paw withdrawal thresholds (PWTs) using von Frey filaments was undertaken prior to CCI-surgery (pre-surgery baseline on day 0). Before the drug dosing on day 14, the pre-dose baseline was recorded for each rat. […] Drug-naïve CCI-rats (n=4-6 per group) were used. The oral vehicle was 0.5% CMC-Na/0.1% Tween 80 in distilled water. The positive control gabapentin was dissolved in the vehicle and orally given at 100 mg/kg (by oral gavage). Test compound was suspended in the vehicle and orally given at 50 mg/kg and 100 mg/kg."}},
  "data": [
    {"smiles": "Nc1ccn([C@@H]2O[C@H](CO)[C@@H](O)C2(F)F)c(=O)n1", "note": "[Gemcitabine, gemcitabine]", "values": [
      {"measurement": "TGI (%, D18)", "setting": "[1]; gemcitabine 10 mg/kg (alone or with Compound-12, see label)", "result": 3, "unit": "%"},
      {"measurement": "TGI (%, D18)", "setting": "[1]; gemcitabine 20 mg/kg (alone or with Compound-12, see label)", "result": 48, "unit": "%"},
      {"measurement": "Tumor volume (Mean ± SEM)", "setting": "[1]; Day 7, gemcitabine 10 mg/kg (alone or with Compound-12, see label)", "result": "83 ± 4", "unit": "mm^3"},
      {"measurement": "Tumor volume (Mean ± SEM)", "setting": "[1]; Day 7, gemcitabine 20 mg/kg (alone or with Compound-12, see label)", "result": "83 ± 3", "unit": "mm^3"},
      {"measurement": "Tumor volume (Mean ± SEM)", "setting": "[1]; Day 11, gemcitabine 10 mg/kg (alone or with Compound-12, see label)", "result": "142 ± 12", "unit": "mm^3"},
      {"measurement": "Tumor volume (Mean ± SEM)", "setting": "[1]; Day 11, gemcitabine 20 mg/kg (alone or with Compound-12, see label)", "result": "109 ± 8", "unit": "mm^3"},
      {"measurement": "Tumor volume (Mean ± SEM)", "setting": "[1]; Day 14, gemcitabine 20 mg/kg (alone or with Compound-12, see label)", "result": "138 ± 9", "unit": "mm^3"},
      {"measurement": "Tumor volume (Mean ± SEM)", "setting": "[1]; Day 18, gemcitabine 10 mg/kg (alone or with Compound-12, see label)", "result": "346 ± 21", "unit": "mm^3"},
      {"measurement": "Tumor volume (Mean ± SEM)", "setting": "[1]; Day 19, gemcitabine 10 mg/kg (alone or with Compound-12, see label)", "result": "374 ± 19", "unit": "mm^3"},
      {"measurement": "Tumor volume (Mean ± SEM)", "setting": "[1]; Day 19, gemcitabine 20 mg/kg (alone or with Compound-12, see label)", "result": "216 ± 18", "unit": "mm^3"}
    ]},
    {"smiles": "COc1ccc2c(c1)c(CC(=O)O)c(C)n2C(=O)c1ccc(Cl)cc1", "note": "[indomethacin, reference compound]", "values": [
      {"measurement": "analgesic effect", "setting": "[2]", "result": "about 100%"}
    ]},
    {"smiles": "NCC1(CC(=O)O)CCCCC1", "note": "[gabapentin, reference compound]", "values": [
      {"measurement": "side effects observed in dosed CCI-rats", "setting": "[3]", "result": "drowsiness or motor incoordination"}
    ]}
  ]
}
